Laboratory results published in patent publication US20020061924A1, “Agent containing tocotrienol for drug” (priority 2000, published 2002).

Experiments:
[1] = test system: human erythrocyte membrane; assay: Reactivity with AAPH radicals on human erythrocyte membrane (residual rate); type: cell-based; settings: for Residual Rate (%) 1 hr. / Residual Rate (%) 2 hrs. / Residual Rate (%) 3 hrs.: 10% erythrocyte suspension, 75 mM AAPH, 37° C.; for Residual Rate (%) 1 hr.: after 1 hour; for Residual Rate (%) 2 hrs.: after 2 hours; for Residual Rate (%) 3 hrs.: after 3 hours
Method: Human erythrocytes to be tested were prepared from blood of a healthy person by treating the blood according the method disclosed in Lipids, vol. 33 (6), p589-595 (1998). Actually, blood drawn from a healthy person was put in a test tube containing EDTA-2Na (1 mg/ml), and certrifuged at 1000×g at 4° C. for 20 minutes to be separated into erythrocytes and plasma. The erythrocytes were washed three times with 5 parts by volume of phosphate-buffered saline (PBS), and centrifuged exactly at 1000×g for 20 minutes to obtain a definite volume of packed erythrocytes.
The erythrocytes were subjected to hemolysis test according to the method of Miki et al., Arch. Biochem. Biophys. 258, p373-380. 0.5 ml of the human erythrocytes were suspended into 4 parts by volume of PBS, and a-tocotrienol ethanol solution was added thereto wherein the final ethanol concentration was made 0.5% (v/v) or less. After incubating the mixture at 37° C. for 30 minutes, the erythrocytes were washed. 10% suspension of the erythrocytes was incubated again. To the suspension, 75 mM AAPH-PBS solution was added, and oxidation was carried out at 37° C. in a dark place with stirring. The state of erythrocyte membrane, which was destroyed by radicals to induce hemolysis, was observed.
Similarly, the human erythrocytes were incubated with α-tocopherol for 30 minutes, washed, and 10% suspension of the erythrocytes was incubated again. To the suspension, 75 mM AAPH was added, and the state of erythrocyte membrane, which was destroyed by radicals to induce hemolysis, was observed.
Reactivity of α-tocotrienol and α-tocopherol with radicals on human erythrocyte membrane was examined, and residual rate of α-tocotrienol and α-tocopherol in solution was measured after 1, 2 and 3 hours.

Human erythrocytes = assay: Deformability of erythrocytes by Micro-Channel Array Flow Analyzer (MC-FAN); type: cell-based; settings: for Passage Time: Table 1, control 54 ± 3; for Ratio to Control: passage time relative to control (1.00)
Method: Deformability of erythrocytes was measured using a Micro-Channel Array Flow Analyzer (MC-FAN) illustrated in FIG. 3 which measures time for passing total volume of an erythrocyte (8-10 μm) through a pore (6 μm) of a microchip.
Human erythrocytes were incubated with 43.3 μM α-tocotrienol for 30 minutes to incorporate the α-tocotrienol into the erythrocytes, and deformability of the erythrocytes was measured by the MC-FAN. As a control sample, human erythrocytes without α-tocotrienol were prepared, and the deformability was also measured.
In comparison, human erythrocytes were incubated with 40 μM α-tocopherol (vitamin E, Tokyo Kasei Kogyo) for 30 minutes to incorporate the α-tocopherol into the erythrocytes, and deformability of the erythrocytes was measured by the MC-FAN. As a result, passage time of the erythrocyte with a -tocopherol was 36 sec/ 100 μl RBC.

[2] = test system: hemolysis by dialuric acid; settings: amount relative to comparator; cited from earlier work
[3] = Antioxidant action on monolayer liposome (iron-ascorbic acid, AAPH, lipoxigenase systems); settings: tocotrienol compared with tocopherol
Method: (§1) Strength of antioxidant action of tocotrienol and tocopherol on monolayer liposome and erythrocyte membrane was evaluated by using iron-ascorbic acid, 2, 2′-azobis (2-amidinopropane).2HCl (AAPH) which is a water-soluble radical generator and lipoxigenase reaction system.

erythrocyte membrane = assay: Antioxidant action on erythrocyte membrane (iron-ascorbic acid, AAPH, lipoxigenase systems); type: cell-based; settings: tocotrienol compared with tocopherol
Method: as §1

Cc1c(C)c2c(c(C)c1O)CC[C@@](C)(CCC[C@H](C)CCC[C@H](C)CCCC(C)C)O2 [α-tocopherol, reference compound]
Residual Rate (%) 1 hr. [1]: 41 ± 3%
Residual Rate (%) 2 hrs. [1]: 25 ± 4%
Residual Rate (%) 3 hrs. [1]: 19 ± 3%
Passage Time (Human erythrocytes): 34 ± 5 sec/100 μ1 RBC
passage time of the erythrocyte (Human erythrocytes; incubated with 40 μM for 30 minutes): 36 sec/ 100 μl RBC
Ratio to Control (Human erythrocytes): 0.63

CC(C)=CCC/C(C)=C/CC/C(C)=C/CC[C@]1(C)CCc2c(C)c(O)c(C)c(C)c2O1 [α-tocotrienol]
Residual Rate (%) 1 hr. [1]: 12 ± 2%
Residual Rate (%) 2 hrs. [1]: 7 ± 1%
Residual Rate (%) 3 hrs. [1]: 4 ± 1%
Passage Time (Human erythrocytes): 26 ± 5 sec/100 μ1 RBC
passage time of the erythrocyte (Human erythrocytes; incubated with 43.3 μM for 30 minutes, without compound 54): 26 sec/100 μl erythrocyte (RBC)
Ratio to Control (Human erythrocytes): 0.47
inhibition of hemolysis by dialuric acid [2]: inhibit hemolysis by dialuric acid even in an amount of one third

tocopherol [reference compound]
strength of antioxidant action on monolayer liposome [3]: difference in the strength of antioxidant action on monolayer liposome was not found

tocotrienol
strength of antioxidant action on monolayer liposome [3]: difference in the strength of antioxidant action on monolayer liposome was not found
incorporation (reaction rate with radicals) relative to tocopherol ([1]; from residual rates on human erythrocyte membrane): about three to four times as much as that of tocopherol
strength of antioxidant action on erythrocyte membrane (erythrocyte membrane): much greater than that of tocopherol
ability of improving the deformability of erythrocytes (Human erythrocytes; comparison of tocotrienol with tocopherol): more excellent than tocopherol
